Measurements from US20160015786A1, “MOBILIZING AGENTS AND USES THEREFOR” (MATER MEDICAL RESEARCH INSTITUTE LIMITED, priority 2013, published 2016).

How the values were obtained:
[1] = test system: colony-forming cells (CFCs); assay: Mobilization of colony-forming cells (CFC/CFU) to blood and spleen, colony assays; format: in vivo, C57BL/6 mice
Protocol: Mobilization of colony-forming cells (CFCs) to the blood and spleen were measured (FIG. 1B).
This was divided into two experiments in which G-CSF was administered for 2 days in one experiment and 4 days in the other (FIG. 2). […] Mobilization of CFCs, phenotypic Lin^−CD41^−Sca1^+Kit^+ HSPCs and Lin^−CD41^− Sca1^+Kit^+CD48^−CD150^+ HSCs were measured in blood and spleens.
Additional HIF-α potentiating agents in the form of PHD inhibitors were tested for their ability to enhance mobilization induced by G-CSF.
(§1) At the end of treatment, blood was harvested by cardiac puncture, mice were sacrificed by cervical dislocation and spleens harvested. Femurs were removed, cleaned and the bone marrow was flushed with 1 mL PBS+10% newborn calf serum (NCS).
The number of phenotypic hematopoietic stem and progenitor cells remaining in the bone marrow following treatment was measured by flow cytometry using antibodies specific for lineage markers (CD3, CD5, CD45R/B220, F4/80, Gr1, CD41, Ter119), Sca-1, Kit, CD48 and CD150. Similarly, the number of phenotypic hematopoietic stem cells mobilized into the blood and spleen were measured. Colony assays were also performed on blood and spleen to determine the number of colony forming cells per mL of blood and per spleen. […] Levels of significance for differences were calculated using the Student's t-test.
All procedures were approved by the animal experimentation ethics committee of the University of Queensland. […] Plerixafor (AMD3100 octohydrochloride, Tocris Bioscience, Bristol, UK) was injected intraperitoneally as a single 16 mg/kg dose corresponding to 10 mg/kg of AMD3100 base. Tissues were harvested 1 h after Plerixafor administration. […] Control mice were injected with an equivalent volume of saline. At specified time-points, mice were anesthetized with isoflurane before cardiac puncture to harvest blood. Mice were then euthanized by cervical dislocation and BM and bones harvested.
Optimal concentrations of mouse IL-3, IL-6 and soluble kit ligand were added as conditioned media from stably transfected BHK cell lines. Colonies were counted after 7 days culture at 37° C. in a humidified incubator containing 5% CO2.

[2] = test system: hematopoietic stem and progenitor cells; assay: Phenotypic HSCs, HSPCs and myeloid progenitors in blood, spleen and bone marrow by flow cytometry; format: in vivo, C57BL/6 mice
Protocol: Additional HIF-α potentiating agents in the form of PHD inhibitors were tested for their ability to enhance mobilization induced by G-CSF. Compound A, Compound B or Compound C, were tested in male, 7 weeks-old C57BL/6 mice. Mice were injected twice daily sub-cutaneously with rhuG-CSF at a dose of 125 μg/kg per injection for four days. Mice were gavaged with 20 mg/kg Compound A, Compound B, Compound C or vehicle control once daily for three days beginning on day 1 of the experiment.
as §1
The number of phenotypic hematopoietic stem and progenitor cells remaining in the bone marrow following treatment was measured by flow cytometry using antibodies specific for lineage markers (CD3, CD5, CD45R/B220, F4/80, Gr1, CD41, Ter119), Sca-1, Kit, CD48 and CD150. Similarly, the number of phenotypic hematopoietic stem cells mobilized into the blood and spleen were measured. Colony assays were also performed on blood and spleen to determine the number of colony forming cells per mL of blood and per spleen. All results are presented as mean f standard deviation with n=6 per groups. Levels of significance for differences were calculated using the Student's t-test.
All procedures were approved by the animal experimentation ethics committee of the University of Queensland. All experiments were performed on nine to twelve-week old C57BL/6 male mice or genetically modified mice back-crossed at least 10 times into C57BL/6. Recombinant human G-CSF (Amgen, Thousand Oaks, Calif.) was injected twice daily subcutaneously at 125 μg/kg per injection for up to 4 consecutive days. Plerixafor (AMD3100 octohydrochloride, Tocris Bioscience, Bristol, UK) was injected intraperitoneally as a single 16 mg/kg dose corresponding to 10 mg/kg of AMD3100 base. Tissues were harvested 1 h after Plerixafor administration. […] Compounds H and J were administered at 60 mg/kg and Compound K was administered at 100 mg/kg. Control mice were injected with an equivalent volume of saline. At specified time-points, mice were anesthetized with isoflurane before cardiac puncture to harvest blood. Mice were then euthanized by cervical dislocation and BM and bones harvested.
Following flushing with PBS plus 2% NCS, enriched central BM cells were pelleted at 370×g for 5 minutes at 4° C. and resuspended in CD16/CD32 hybridoma 2.4G2 supernatant to block IgGFc receptors. HSCs were stained with the biotinylated lineage antibody cocktail (CD3, CD5, B220, CD11b, Gr-1, Ter119) and biotinylated CD41 together with streptavidin (SAV)-Pacific Blue, anti-Sca-1-PECY7, anti-KIT-APC, CD48-FITC and CD150-PE as previously described (17). Data were acquired on a CyAn (Dako Cytomation) flow cytometer and analyzed following compensation with single color controls using FlowJo software (Tree Star, Ashland, Oreg.).

[3] = Compound X added to 2 days G-CSF plus Plerixafor, p<0.005
[4] = Compound X added to 2 days G-CSF plus Plerixafor, P<0.01
[5] = G-CSF 2 days together with Compound X, p<0.005

## O=C(O)CNC(=O)c1ncc2cc(Sc3ccccc3)ccc2c1O [Compound X, [(4-Hydroxy-7-phenylsulfanyl-isoquinoline-3-carbonyl)-amino]-acetic acid]
[1]; 1 hr following Plerixafor treatment with or without Compound X, FIG. 1D
  mobilization of HSPC to the spleen: no significant mobilization
[1]; Compound X 1-4 days, G-CSF for the last 2 days, FIG. 1C
  day of Compound X administration at which CFC mobilization into blood and spleen peaks: 3 days
[1]; [3]
  further increase of CFC/mL mobilized into blood: 2.5 fold
  further increase of CFC/spleen: 4 fold
[1]; Compound X added to 4 days G-CSF plus Plerixafor, p<0.005
  boost of CFC/mL blood: 2.5 fold
[1]; Compound X alone for 3 days
  CFC mobilization into the blood: did not induce
[1]; Example 1: Compound X 3 days added to G-CSF, following 2 days of G-CSF, FIG. 1B
  increase in CFCs mobilized per mL blood: 2.5 fold
[1]; Example 1: Compound X 3 days added to G-CSF, following 3 days of G-CSF, FIG. 1B
  increase of CFCs mobilized to the spleen: 6 fold
[1]; Example 3: 4 days G-CSF, addition of Compound X, P<0.001
  increase in the number of CFC/mL blood: 4 fold
[1]; Example 3: 4 days G-CSF, addition of Compound X, P<0.01
  number of CFC/spleen: further significant increase
[1]; Example 3: Compound X alone (data not shown)
  mobilizing effect: no mobilizing effect
[1]; Example 3: G-CSF 250 μg/kg/day 2 days + Compound X 20 mg/kg/day 3 days (G+X3), p<0.001, FIG. 2B
  CFC mobilized to the blood versus G-CSF alone: 4 fold
[1]; Example 3: G-CSF 2 days + Compound X 20 mg/kg/day 3 days (G+X3), p<0.001, FIG. 2B
  CFC mobilized to the spleen versus G-CSF alone: 47 fold
[1]; Plerixafor 1 h plus 2 to 3 day treatment with Compound X, FIG. 1D
  number of CFC mobilized per mL blood in response to Plerixafor: significantly increased
[2]; [4]
  boost of mobilization of HSPCs in the blood: 2.5 fold
  boost of mobilization of HSPCs in the spleen: 4 fold
  boost of mobilization of phenotypic HSCs: 3 fold
[2]; Compound X added to 4 days G-CSF and Plerixafor, P<0.001
  number of phenotypic HSCs and HSPCs in the blood: dramatically increased
[2]; [5]
  number of Lin−Sca1+Kit+ HSPCs in spleen versus G-CSF alone: tripled
  number of Lin−Sca1+Kit+ HSPCs in the blood versus G-CSF alone: doubled
[2]; G-CSF 2 days together with Compound X, p<0.005, FIG. 2C-D
  increase in number of phenotypic HSCs versus G-CSF alone: 3 fold
